Values quoted from earlier work as cited in patent US9364479B2, “Use of a receptor-type kinase modulator for treating polycystic kidney disease” (SYMPHONY EVOLUTION, INC., priority 2010, dated 2016).

Tests used:
[1] = system: PKD model; settings: in vivo; cited from earlier work
[2] = system: bpk mice; settings: cited from earlier work
[3] = system: bpk mice or PCK rat; settings: cited from earlier work

CCOc1cc2ncc(C#N)c(Nc3ccc(F)c(Cl)c3)c2cc1NC(=O)/C=C/CN(C)C [EKB-569]
cyst formation and renal function, in words [1]: effective in reducing cyst formation and maintaining normal renal function

CC#CC(=O)Nc1ccc2ncnc(Nc3cccc(Br)c3)c2c1 [EKI-785]
progression of PKD, in words [2]: effective in preventing the progression of PKD

COc1cc(Nc2c(C#N)cnc3cc(OCCCN4CCN(C)CC4)c(OC)cc23)c(Cl)cc1Cl [SKI-606]
renal cyst formation and biliary duct abnormalities, in words [3]: ameliorated renal cyst formation and biliary duct abnormalities
